Assay results taken from patent US9642834B2, “Composition comprising alpha-lipoic acid and honokiol for treating neuropathies” (Giellepi S.p.A., priority 2012, dated 2017).
“Also recorded” adds a separate entry of the source.

Experiments:
[1] = system: cultured rat cortical neurons; details: primary cultures; cited from earlier work
[2] = system: primary cell culture of rat cortical neurons; assay: Morphological evaluation of neurite length (MAP2 staining) in primary cultures; format: cell-based; details: for Increase respect to control (culture A): neurite length relative to control culture A; for Increase respect to control (culture A) / Increase of average neurite length: overall concentration 10 μM (culture B: 40 ng mL−1 bFGF), 6 days incubation; for Increase of average neurite length: control culture A 280; for Effect on neurite extension/length (in words): overall concentration 10 μM, compared to control culture A
Description: Eight primary cellular cultures were prepared as described in Abe K et al. “Effects of recombinant human basic fibroblast growth factor and its modified protein CS23 on survival of primary cultured neurons from various regions of fetal rat brain.”, Jpn J Pharmacol 1990, 53 (2): 221-7. All operations were carried out under sterile conditions.
Neuronal cells were separated from cerebral hemispheres of rat fetuses of 18 days (Japan SLC, Inc.) and suspended in 10% FBS/MEM, then seeded at 9000 cells cm^−2 in poly-L-lysine plates.
After 24 hours, the culture medium was replaced with a serum-free medium, specific for the growth of neurons (Neurobasal Medium) supplemented with B27.
After 6 days incubation, the cells of the eight cultures were fixed with 4% formaldehyde.
The eight cultures were then evaluated regarding the length of neurites at the microscopic level. The neurons were subjected to immunohistochemical staining for the microtubule-associated protein-2 (MAP2) according to the histochemical method for the length of neurites, as described in Fukuyama Y et al. “Neurotrophic activity of honokiol on the cultures of fetal rat cortical neurons” Bioorg. Med Chem. Lett 12, 1163-66 (2002). The length of the most extended neurite of the whole cellular body was measured and calculated by using software programs Lumina Vision and Mac-SCOPE, according to the above-mentioned method described in Y. Fukuyama et al. (2002). The morphometric analyses were performed by measuring the length of the longest neurite from each neuron using Lumina Vision and Mac-Scope software (Yoshiyasu Fukuyama et al. 2002).

[3] = system: symptoms of diabetic polyneuropathy and sciatic pain; details: cited from earlier work

Compound | Neurite growth and neuron survival (in words) [1] | Increase respect to control (culture A) [2] | Increase of average neurite length [2] | Effect on neurite extension/length (in words) [2] | Side effects such as nausea, vomiting and dizziness ([3]; daily doses 600, 1200 and 1800 mg) | Daily dose providing the best risk/benefit ratio ([3]; treatment of symptoms of diabetic polyneuropathy and sciatic pain) [mg]
C=CCc1ccc(O)c(-c2ccc(O)c(CC=C)c2)c1 [Culture H, honokiol] | able to promote neurite growth; also recorded: capable of increasing the survival and development of neurons | 1.02 | 287 (p = ns) μm | stimulated neurite growth in a negligible way |  | 
O=C(O)CCCCC1CCSS1 (stereo not drawn) [Culture G, alpha-lipoic acid] |  | 1.01 | 285 (p = ns) μm | stimulated neurite growth in a negligible way | dose-dependent increase of the side effects | 600
Culture B: Human recombinant fibroblast growth factors (bFGF), 40 ng mL−1, supplied by Upstate Biotechnology |  | 1.05 | 295 (p = ns) μm |  |  | 
